The text below walks through data of patent US7759397B2, “6-amino(aza)indane compounds suitable for treating disorders that respond to modulation of the dopamine D3 receptor” (Abbott GmbH & Co. KG, priority 2004, dated 2010).

SMILES strings stand for the structures. pKi: −log10 of the molar value.

Assay [1] concerns the target T1, human dopamine D3 receptors (Homo sapiens, UniProt P35462).
T1 construct: expressed in transfected cells
In words: Dopamine D3 receptor binding, displacement of [125I]-iodosulpride. The note with it: ratio of receptor binding constants D2 over D3. The procedure:
(§1) The substance to be tested was either dissolved in methanol/Chremophor® (BASF-AG) or in dimethyl sulfoxide and then diluted with water to the desired concentration.
(§2) Each assay mixture was run in triplicate.
The incubation buffer contained 50 mM tris, 120 mM NaCl, 5 mM KCl, 2 mM CaCl2, 2 mM MgCl2 and 0.1% bovine serum albumin, 10 μM […] and 0.1% ascorbic acid (prepared fresh daily). The buffer was adjusted to pH 7.4 with HCl. Dopamine D2L receptor:
(§3) After having been incubated at 25° C. for 60 minutes, the assay mixtures were filtered through a Whatman GF/B glass fiber filter under vacuum using a cell collecting device. The filters were transferred to scintillation viols using a filter transfer system. After 4 ml of Ultima Gold® (Packard) have been added, the samples were shaken for one hour and the radioactivity was then counted in a Beta-Counter (Packard, Tricarb 2000 or 2200CA). The cpm values were converted into dpm using a standard quench series and the program belonging to the instrument.
(§4) The inhibition curves were analyzed by means of iterative nonlinear regression analysis using the Statistical Analysis System (SAS) which is similar to the “LIGAND” program described by Munson and Rodbard.

The target of assay [2] is T1, human dopamine D3 receptors. The description is as above. The note with it: membranes of HEK-293 cells stably expressing human D3; 0.1 nM [125I]-iodosulpride; 25° C., 60 minutes; read-out: Ki(D3)* receptor binding constant.
For assay [3], the target named is T2, human dopamine D2L receptors (long isoform) (Homo sapiens, UniProt P14416).
T2 construct: expressed in transfected cells
The assay can be described thus: Dopamine D2L receptor binding, displacement of [125I] iodospiperone. The note with it: membranes of HEK-293 cells stably expressing human D2L; 0.01 nM [125I] iodospiperone; 25° C., 60 minutes; read-out: Ki(D2)* receptor binding constant. The procedure: as §1, §2
The incubation buffer contained 50 mM tris, 120 mM NaCl, 5 mM KCl, 2 mM CaCl2, 2 mM MgCl2 and 0.1% bovine serum albumin. The buffer was adjusted to pH 7.4 with HCl.
as §3, §4

As a reminder, the pKi is the negative decadic logarithm of the Ki, by convention in mol/L.

T2 sequence (P14416 whole entry, canonical isoform): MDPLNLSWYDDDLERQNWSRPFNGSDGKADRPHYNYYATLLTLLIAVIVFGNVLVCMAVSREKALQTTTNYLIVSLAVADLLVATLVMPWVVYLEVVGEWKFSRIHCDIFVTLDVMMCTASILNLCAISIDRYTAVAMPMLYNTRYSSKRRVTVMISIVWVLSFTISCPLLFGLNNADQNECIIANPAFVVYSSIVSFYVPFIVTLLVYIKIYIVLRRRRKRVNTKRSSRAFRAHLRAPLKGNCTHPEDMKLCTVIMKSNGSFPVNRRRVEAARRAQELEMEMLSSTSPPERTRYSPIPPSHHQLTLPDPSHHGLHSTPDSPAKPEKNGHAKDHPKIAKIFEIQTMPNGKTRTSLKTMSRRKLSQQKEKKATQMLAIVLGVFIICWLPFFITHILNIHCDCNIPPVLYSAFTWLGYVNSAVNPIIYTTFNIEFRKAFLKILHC
T1 sequence (P35462 whole entry): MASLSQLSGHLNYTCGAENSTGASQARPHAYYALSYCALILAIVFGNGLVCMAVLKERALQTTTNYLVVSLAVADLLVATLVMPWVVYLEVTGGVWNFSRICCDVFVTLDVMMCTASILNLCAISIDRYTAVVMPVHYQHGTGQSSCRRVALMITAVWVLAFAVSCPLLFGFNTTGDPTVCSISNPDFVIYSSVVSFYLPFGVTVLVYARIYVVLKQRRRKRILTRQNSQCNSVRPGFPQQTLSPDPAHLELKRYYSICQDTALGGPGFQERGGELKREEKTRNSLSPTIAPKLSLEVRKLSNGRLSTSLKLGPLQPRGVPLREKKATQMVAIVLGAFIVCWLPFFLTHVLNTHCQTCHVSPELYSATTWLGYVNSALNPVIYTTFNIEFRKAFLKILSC

As for `CCCN1CCC[C@@H]2c3cc(NS(=O)(=O)c4ccc(C(C)C)cc4)ccc3C[C@H]21` [4 (RR)-isomer], in assay [1], the “Ki(D2)*/Ki(D3)* selectivity ratio” value worked out at 134. In addition, the pKi in assay [2] was 8.03.

In the case of `CCCN1CCC[C@H]2c3cc(NS(=O)(=O)c4ccc(C(C)C)cc4)ccc3C[C@@H]21` [4 (SS)-isomer], the “Ki(D2)*/Ki(D3)* selectivity ratio” value in assay [1] is listed as 17. The pKi in assay [2] was 8.80.

In the case of `CCCN[C@@H]1Cc2ccc(NS(=O)(=O)c3ccc(C(C)C)cc3)cc2C1` [Example 1, 4-Isopropyl-N—((R)-2-propylamino-indan-5-yl)-benzenesulfonamide], the “Ki(D2)*/Ki(D3)* selectivity ratio” value in assay [1] worked out at 64. Also, the negative logarithm of the Ki (pKi) in assay [3] was 6.59; in assay [2] it was 8.40.

In the case of `CCCN[C@H]1Cc2ccc(NS(=O)(=O)c3ccc(C(C)C)cc3)cc2C1.Cl` [Example 2, 4-Isopropyl-N—((S)-2-propylamino-indan-5-yl)-benzenesulfonamide hydrochloride], the “Ki(D2)*/Ki(D3)* selectivity ratio” value in assay [1] was 20. Besides, the pKi in assay [3] is 6.88; in assay [2], 8.17.

Regarding `CCCN[C@H]1Cc2ccc(N(C)S(=O)(=O)c3ccc(C(C)C)cc3)cc2C1` [Example 3, 4-isopropyl-N-methyl-N—((S)-2-propylamino-indan-5-yl)-benzenesulfonamide], the “Ki(D2)*/Ki(D3)* selectivity ratio” value in assay [1] was 22. Besides, the values for the pKi in assay [3] and in assay [2] were 6.80 and 8.15, respectively.

Consider `CCCN(CCC)[C@@H]1Cc2ccc(NS(=O)(=O)c3ccc(C(C)C)cc3)cc2C1.Cl` [Example 7, N—((R)-2-Dipropylamino-indan-5-yl)-4-isopropyl-benzenesulfonamide hydrochloride], for which the “Ki(D2)*/Ki(D3)* selectivity ratio” value in assay [1] was determined as 195. The values for the pKi in assay [3] and in assay [2] were 7.29 and 9.59, respectively.
